{
  "source": "patent US10538554B2",
  "about": "“Peptides and uses therefor as antiviral agents” (priority 2015, dated 2020)",
  "note": "Bridge positions count the residues as written; N and C are the ends. Square brackets hold non-standard residues; d marks the D form. Peptide text beside a SMILES is read from it.",
  "data": [
    {"test_system": "H1N1 A1/Malaysia/302/1954", "conditions": "A1/Malaysia/302/1954, 48 h, 1 μM", "units": {"% Inhibition": "%"}, "values": [
      {"smiles": "CC[C@@H](C)[C@H]1NC(=O)[C@@H](C)NC(=O)[C@@H]([C@H](C)O)NC(=O)[C@@H](Cc2ccccc2)NC(=O)[C@@H](Cc2c[nH]c3ccccc23)NC(=O)[C@@H](Cc2c[nH]c3ccccc23)NC(=O)[C@H](NC(=O)[C@H](CCCCN)NC(=O)[C@H](CCCCN)NC(=O)[C@H](CCCNC(=N)N)NC(=O)[C@@H](N)CCCNC(=N)N)CSSC[C@H](C(=O)O)NC(=O)[C@@H](C)NC1=O", "note": "[PSP VII A1, H-RRKKcwwftaiac-OH] (H-RRKK[dC][dW][dW][dF][dT][dA][dI][dA][dC]-OH; disulfide 5-13)", "% Inhibition": 25.2},
      {"smiles": "CC[C@@H](C)[C@H]1NC(=O)[C@@H](CS)NC(=O)[C@@H]([C@H](C)O)NC(=O)[C@@H](Cc2ccccc2)NC(=O)[C@@H](Cc2c[nH]c3ccccc23)NC(=O)[C@@H](Cc2c[nH]c3ccccc23)NC(=O)[C@H](NC(=O)[C@H](CCCCN)NC(=O)[C@H](CCCCN)NC(=O)[C@H](CCCNC(=N)N)NC(=O)[C@@H](N)CCCNC(=N)N)CSSC[C@H](C(=O)O)NC(=O)[C@@H](C)NC1=O", "note": "[PSP VII A2, H-RRKKcwwftciac-OH] (H-RRKK[dC][dW][dW][dF][dT][dC][dI][dA][dC]-OH; disulfide 5-13)", "% Inhibition": 11.9},
      {"smiles": "CC[C@@H](C)[C@H]1NC(=O)[C@@H](CC(=O)O)NC(=O)[C@@H]([C@H](C)O)NC(=O)[C@@H](Cc2ccccc2)NC(=O)[C@@H](Cc2c[nH]c3ccccc23)NC(=O)[C@@H](Cc2c[nH]c3ccccc23)NC(=O)[C@H](NC(=O)[C@H](CCCCN)NC(=O)[C@H](CCCCN)NC(=O)[C@H](CCCNC(=N)N)NC(=O)[C@@H](N)CCCNC(=N)N)CSSC[C@H](C(=O)O)NC(=O)[C@@H](C)NC1=O", "note": "[PSP VII A3, H-RRKKcwwftdiac-OH] (H-RRKK[dC][dW][dW][dF][dT][dD][dI][dA][dC]-OH; disulfide 5-13)", "% Inhibition": 9.5},
      {"smiles": "CC[C@@H](C)[C@H]1NC(=O)[C@@H](CCC(=O)O)NC(=O)[C@@H]([C@H](C)O)NC(=O)[C@@H](Cc2ccccc2)NC(=O)[C@@H](Cc2c[nH]c3ccccc23)NC(=O)[C@@H](Cc2c[nH]c3ccccc23)NC(=O)[C@H](NC(=O)[C@H](CCCCN)NC(=O)[C@H](CCCCN)NC(=O)[C@H](CCCNC(=N)N)NC(=O)[C@@H](N)CCCNC(=N)N)CSSC[C@H](C(=O)O)NC(=O)[C@@H](C)NC1=O", "note": "[PSP VII A4, H-RRKKcwwfteiac-OH] (H-RRKK[dC][dW][dW][dF][dT][dE][dI][dA][dC]-OH; disulfide 5-13)", "% Inhibition": 3.8},
      {"smiles": "CC[C@@H](C)[C@H]1NC(=O)CNC(=O)[C@@H]([C@H](C)O)NC(=O)[C@@H](Cc2ccccc2)NC(=O)[C@@H](Cc2c[nH]c3ccccc23)NC(=O)[C@@H](Cc2c[nH]c3ccccc23)NC(=O)[C@H](NC(=O)[C@H](CCCCN)NC(=O)[C@H](CCCCN)NC(=O)[C@H](CCCNC(=N)N)NC(=O)[C@@H](N)CCCNC(=N)N)CSSC[C@H](C(=O)O)NC(=O)[C@@H](C)NC1=O", "note": "[PSP VII A5, H-RRKKcwwftGiac-OH] (H-RRKK[dC][dW][dW][dF][dT]G[dI][dA][dC]-OH; disulfide 5-13)", "% Inhibition": 9.5},
      {"smiles": "CC[C@@H](C)[C@H]1NC(=O)[C@@H](Cc2c[nH]cn2)NC(=O)[C@@H]([C@H](C)O)NC(=O)[C@@H](Cc2ccccc2)NC(=O)[C@@H](Cc2c[nH]c3ccccc23)NC(=O)[C@@H](Cc2c[nH]c3ccccc23)NC(=O)[C@H](NC(=O)[C@H](CCCCN)NC(=O)[C@H](CCCCN)NC(=O)[C@H](CCCNC(=N)N)NC(=O)[C@@H](N)CCCNC(=N)N)CSSC[C@H](C(=O)O)NC(=O)[C@@H](C)NC1=O", "note": "[PSP VII A7, H-RRKKcwwfthiac-OH] (H-RRKK[dC][dW][dW][dF][dT][dH][dI][dA][dC]-OH; disulfide 5-13)", "% Inhibition": 47.1},
      {"smiles": "CC[C@@H](C)[C@H]1NC(=O)[C@@H]([C@H](C)O)NC(=O)[C@@H](Cc2ccccc2)NC(=O)[C@@H](Cc2c[nH]c3ccccc23)NC(=O)[C@@H](Cc2c[nH]c3ccccc23)NC(=O)[C@H](NC(=O)[C@H](CCCCN)NC(=O)[C@H](CCCCN)NC(=O)[C@H](CCCNC(=N)N)NC(=O)[C@@H](N)CCCNC(=N)N)CSSC[C@H](C(=O)O)NC(=O)[C@@H](C)NC(=O)[C@@H]([C@H](C)CC)NC1=O", "note": "[PSP VII A8, H-RRKKcwwftiiac-OH] (H-RRKK[dC][dW][dW][dF][dT][dI][dI][dA][dC]-OH; disulfide 5-13)", "% Inhibition": 84.8},
      {"smiles": "CC[C@@H](C)[C@H]1NC(=O)[C@@H](CCCCN)NC(=O)[C@@H]([C@H](C)O)NC(=O)[C@@H](Cc2ccccc2)NC(=O)[C@@H](Cc2c[nH]c3ccccc23)NC(=O)[C@@H](Cc2c[nH]c3ccccc23)NC(=O)[C@H](NC(=O)[C@H](CCCCN)NC(=O)[C@H](CCCCN)NC(=O)[C@H](CCCNC(=N)N)NC(=O)[C@@H](N)CCCNC(=N)N)CSSC[C@H](C(=O)O)NC(=O)[C@@H](C)NC1=O", "note": "[PSP VII A9, H-RRKKcwwftkiac-OH] (H-RRKK[dC][dW][dW][dF][dT][dK][dI][dA][dC]-OH; disulfide 5-13)", "% Inhibition": 17.4},
      {"smiles": "CC[C@@H](C)[C@H]1NC(=O)[C@@H](CC(C)C)NC(=O)[C@@H]([C@H](C)O)NC(=O)[C@@H](Cc2ccccc2)NC(=O)[C@@H](Cc2c[nH]c3ccccc23)NC(=O)[C@@H](Cc2c[nH]c3ccccc23)NC(=O)[C@H](NC(=O)[C@H](CCCCN)NC(=O)[C@H](CCCCN)NC(=O)[C@H](CCCNC(=N)N)NC(=O)[C@@H](N)CCCNC(=N)N)CSSC[C@H](C(=O)O)NC(=O)[C@@H](C)NC1=O", "note": "[PSP VII A10, H-RRKKcwwftliac-OH] (H-RRKK[dC][dW][dW][dF][dT][dL][dI][dA][dC]-OH; disulfide 5-13)", "% Inhibition": 35.7},
      {"smiles": "CC[C@@H](C)[C@H]1NC(=O)[C@@H](CCSC)NC(=O)[C@@H]([C@H](C)O)NC(=O)[C@@H](Cc2ccccc2)NC(=O)[C@@H](Cc2c[nH]c3ccccc23)NC(=O)[C@@H](Cc2c[nH]c3ccccc23)NC(=O)[C@H](NC(=O)[C@H](CCCCN)NC(=O)[C@H](CCCCN)NC(=O)[C@H](CCCNC(=N)N)NC(=O)[C@@H](N)CCCNC(=N)N)CSSC[C@H](C(=O)O)NC(=O)[C@@H](C)NC1=O", "note": "[PSP VII A11, H-RRKKcwwftmiac-OH] (H-RRKK[dC][dW][dW][dF][dT][dM][dI][dA][dC]-OH; disulfide 5-13)", "% Inhibition": 9.8},
      {"smiles": "CC[C@@H](C)[C@H]1NC(=O)[C@@H](CC(N)=O)NC(=O)[C@@H]([C@H](C)O)NC(=O)[C@@H](Cc2ccccc2)NC(=O)[C@@H](Cc2c[nH]c3ccccc23)NC(=O)[C@@H](Cc2c[nH]c3ccccc23)NC(=O)[C@H](NC(=O)[C@H](CCCCN)NC(=O)[C@H](CCCCN)NC(=O)[C@H](CCCNC(=N)N)NC(=O)[C@@H](N)CCCNC(=N)N)CSSC[C@H](C(=O)O)NC(=O)[C@@H](C)NC1=O", "note": "[PSP VII A12, H-RRKKcwwftniac-OH] (H-RRKK[dC][dW][dW][dF][dT][dN][dI][dA][dC]-OH; disulfide 5-13)", "% Inhibition": 55.2},
      {"smiles": "CC[C@@H](C)[C@H]1NC(=O)[C@H]2CCCN2C(=O)[C@@H]([C@H](C)O)NC(=O)[C@@H](Cc2ccccc2)NC(=O)[C@@H](Cc2c[nH]c3ccccc23)NC(=O)[C@@H](Cc2c[nH]c3ccccc23)NC(=O)[C@H](NC(=O)[C@H](CCCCN)NC(=O)[C@H](CCCCN)NC(=O)[C@H](CCCNC(=N)N)NC(=O)[C@@H](N)CCCNC(=N)N)CSSC[C@H](C(=O)O)NC(=O)[C@@H](C)NC1=O", "note": "[PSP VII A13, H-RRKKcwwftpiac-OH] (H-RRKK[dC][dW][dW][dF][dT][dP][dI][dA][dC]-OH; disulfide 5-13)", "% Inhibition": 41.9}
    ]}
  ]
}
